The results in this text go back to ChEMBL document CHEMBL1201862, “PubChem BioAssay data set” (2004).

Holding throughout (assay): NCI-60 cell line screen, 48 h
The test system of test [1] is SF-539.
Test [2] has as its system 786-0.
In test [3] the test system is K562.
Test [4] deals with NCI-H23.
Test [5] relates to RXF 393.
For test [6], the system named is UO-31.
The test system of test [7] is NCI/ADR-RES.
Test [8] concerns SN12C.
In test [9] the test system is TK-10.
Test [10] deals with SR.
In test [11] the test system is M14.
The subject of test [12] is LOX IMVI.
Test [13] deals with HOP-92.
In test [14] the test system is CCRF-CEM.
For test [15], the system named is CAKI-1.
Test [16] concerns MOLT-4.
Test [17] deals with A498.
Test [18] concerns KM12.
In test [19] the test system is HCT-15.
In test [20] the test system is HT-29.

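Test compounds were applied to cells in 96-well plates for 48 hours at 5 doses. At the GI50, growth is halved.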 The source made the active and inactive calls. Cut-off read from the data, not from the text of the source: active = GI50 up to about 1.1 µM and inactive = higher.

`N#Cc1c(-c2nc3ccccc3s2)c(=O)oc2cc(O)ccc12`: the GI50 in test [1] was > 100 µM (inactive); in [2], 26.4 µM (inactive); in test [3], 31.8 µM (inactive); in [4], 24.8 µM (inactive); in test [5], 43.6 µM (inactive); in test [6], 22 µM (inactive). The GI50 in [7] was 32.4 µM (inactive); in test [8], 42.3 µM (inactive); in test [9] it was > 100 µM (inactive); in test [10] it was 37.3 µM (inactive); in [11] it was 35.2 µM (inactive); in [12], 28.6 µM (inactive). For the same compound, the GI50 in test [13] was 3.52 µM (inactive); in [14] it was 25.4 µM (inactive); in test [15], 17.5 µM (inactive); in test [16], 28 µM (inactive); in test [17] it was 23 µM (inactive); in [18] it was 22.3 µM (inactive). Further, the GI50 in test [19] was 27.1 µM; in test [20], 13 µM (inactive).
`COc1cc2ccc1OCc1cccc(n1)COc1ccc(cc1OC)/C=N\CCNCCNCC/N=C\2`: the GI50 in test [1], in [2], in [3], in test [4], in test [5] and in test [6] was > 100 µM (inactive) in each case. Also, the GI50 in [7], in [8], in test [9], in [10], in [11] and in test [12] was > 100 µM (inactive) throughout. The GI50 in test [13] was > 100 µM (inactive); in [14] it was > 100 µM (inactive); in test [15], > 100 µM (inactive); in [16], 46.5 µM (inactive); in test [17], > 100 µM (inactive); in test [18], > 100 µM (inactive). The GI50 in test [19] was greater than 100 µM; in [20], > 100 µM (inactive).
As to `CCC(C#N)N(Cc1cccc(CN(C(C)=O)C(C#N)CC)c1)C(C)=O` (stereo not given), the GI50 in test [1], in test [2], in test [3], in test [4], in test [5] and in test [6] was > 100 µM (inactive) each time. Besides, the GI50 in test [7] is 84.1 µM (inactive); in [8], > 100 µM (inactive); in test [9] it was > 100 µM (inactive); in [10], 77.8 µM (inactive); in [11] it was > 100 µM (inactive); in test [12], > 100 µM (inactive). Further, the GI50 was 6.56 µM (inactive) in test [13]; > 100 µM (inactive) in [14]; > 100 µM (inactive) in [15]; 5.52 µM (inactive) in test [16]; > 100 µM (inactive) in test [17]; > 100 µM (inactive) in test [18]. Moreover, the GI50 in test [19] was 42.9 µM; in test [20], 7.57 µM (inactive).
Turning to `COc1cc2c(/C=C3/C(=O)Nc4cccc(Cl)c43)c(Cl)[nH]c2cc1C`, the GI50 was 1.6 µM (inactive) in test [1]; 1.85 µM (inactive) in test [2]; 1.76 µM (inactive) in test [3]; 2.51 µM (inactive) in test [4]; 2 µM (inactive) in test [5]; 3.73 µM (inactive) in [6]. Also, the GI50 in test [7] was 1.65 µM (inactive); in [8], 1.32 µM (inactive); in test [9] it was 1.06 µM (active); in test [10], 1.41 µM (inactive); in [11] it was 2.23 µM (inactive); in test [12], 1.8 µM (inactive). Further, the GI50 is 8.17 µM (inactive) in test [13]; 1.56 µM (inactive) in test [14]; 1.86 µM (inactive) in test [15]; 0.366 µM (active) in [16]; 8.67 µM (inactive) in [17]; 1.7 µM (inactive) in test [18]. Besides, the values for the GI50 in [19] and in test [20] were 1.95 µM and 1.94 µM (inactive), respectively.
